≈ marks a conversion by molar mass, not a printed value.
Tests used:
[1] = test system: methicilline resistant Staphylococcus aureus (MRSA) (a clinical isolate from the University of Antwerp); assay: Microtitre plate assay, IC90 determination (STA RMETH); assay type: cell-based; details: 90% inhibitory concentration for bacterial growth, 37° C., 24 hours, resazurin fluorescence
Protocol: (§1) The bacteria used in this study were grown overnight in flasks containing 100 ml Mueller-Hinton Broth (Becton Dickinson—cat. no. 275730) in sterile de-ionized water, with shaking, at 37° C. Stocks (0.5 ml/tube) were stored at −70° C. until use. Bacteria titrations were performed in microtiter plates and colony forming units (CFUs) were determined. In general, an inoculum level of approximately 100 CFUs was used for susceptibility testing.
(§2) Flat-bottom, sterile 96-well plastic microtiter plates were filled with 180 μl of sterile deionized water, supplemented with 0.25% BSA. Subsequently, stock solutions (7.8× final test concentration) of compounds were added in 45 μl volumes in column 2 Serial five-fold dilutions (45 μl in 180 μl) were made directly in the microtiter plates from column 2 to reach column 11. Untreated control samples with (column 1) and without (column 12) inoculum were included in each microtiter plate. Depending on the bacteria type, approximately 10 to 60 CFU per well of bacteria inoculum (100 TCID50), in a volume of 100 μl in 2.8× Mueller-Hinton broth medium, was added to the rows A to H, except column 12. The same volume of broth medium without inoculum was added to column 12 in row A to H. The cultures were incubated at 37° C. for 24 hours under a normal atmosphere (incubator with open air valve and continuous ventilation). At the end of incubation, one day after inoculation, the bacterial growth was quantitated fluorometrically. Therefore resazurin (0.6 mg/ml) was added in a volume of 20 μl to all wells 3 hours after inoculation, and the plates were re-incubated overnight. A change in colour from blue to pink indicated the growth of bacteria. The fluorescence was read in a computer-controlled fluorometer (Cytofluor Biosearch) at an excitation wavelength of 530 nm and an emission wavelength of 590 nm. The % growth inhibition achieved by the compounds was calculated according to standard methods. The IC90 (expressed in μg/ml) was defined as the 90% inhibitory concentration for bacterial growth.

[2] = test system: Streptococcus pyogens (ATCC8668); assay: Microtitre plate assay, IC90 determination (SPY 8668); assay type: cell-based; details: 90% inhibitory concentration for bacterial growth, 37° C., resazurin fluorescence; for IC90 SPY 8668: 24 hours; for IC90: Streptococcus, ATCC8668, 24 h
Protocol: as §1, §2

[3] = test system: Enterococcus faecalis (ATCC29212); assay: Microtitre plate assay, IC90 determination (EFA 29212); assay type: cell-based; details: 90% inhibitory concentration for bacterial growth, 37° C., resazurin fluorescence; for IC90 EFA 29212: 24 hours; for IC90: Enterococcus faecalis, ATCC29212, 24 h
Protocol: as §1, §2

[4] = test system: Pseudomonas aeruginosa (ATCC27853); assay: Microtitre plate assay, IC90 determination (PAE 27853); assay type: cell-based; details: 90% inhibitory concentration for bacterial growth, 37° C., resazurin fluorescence; for IC90 PAE 27853: 24 hours
Protocol: as §1, §2

[5] = test system: Streptococcus pneumoniae (ATCC6305); assay: Microtitre plate assay, IC90 determination (SPN 6305); assay type: cell-based; details: 90% inhibitory concentration for bacterial growth, 37° C., resazurin fluorescence; for IC90 SPN 6305: 24 hours; for IC90: Streptococcus pneumoniae, ATCC6305, 24 h
Protocol: as §1, §2

[6] = test system: Staphylococcus aureus (ATCC29213); assay: Microtitre plate assay, IC90 determination (STA 29213); assay type: cell-based; details: 90% inhibitory concentration for bacterial growth, 37° C., resazurin fluorescence; for IC90 STA 29213: 24 hours; for IC90: Staphylococcus aureus, ATCC29213, 24 h
Protocol: as §1, §2

[7] = test system: Staphylococcus aureus (ATCC25923); assay: Microtitre plate assay, IC90 determination (STA 25923); assay type: cell-based; details: 90% inhibitory concentration for bacterial growth, 37° C., 24 hours, resazurin fluorescence
Protocol: as §1
Flat-bottom, sterile 96-well plastic microtiter plates were filled with 180 μl of sterile deionized water, supplemented with 0.25% BSA. Subsequently, stock solutions (7.8× final test concentration) of compounds were added in 45 μl volumes in column 2 Serial five-fold dilutions (45 μl in 180 μl) were made directly in the microtiter plates from column 2 to reach column 11. Untreated control samples with (column 1) and without (column 12) inoculum were included in each microtiter plate. […] At the end of incubation, one day after inoculation, the bacterial growth was quantitated fluorometrically. […] The fluorescence was read in a computer-controlled fluorometer (Cytofluor Biosearch) at an excitation wavelength of 530 nm and an emission wavelength of 590 nm. The % growth inhibition achieved by the compounds was calculated according to standard methods. […]

[8] = test system: Listeria monocytogenes (ATCC49594); assay: Microtitre plate assay, IC90 determination (LMO 49594); assay type: cell-based; details: 90% inhibitory concentration for bacterial growth, 37° C., 24 hours, resazurin fluorescence
Protocol: as §1, §2

[9] = test system: Bacillus subtilis (ATCC43639); assay: Microtitre plate assay, IC90 determination (BSU 43639); assay type: cell-based; details: 90% inhibitory concentration for bacterial growth, 37° C., 24 hours, resazurin fluorescence
Protocol: as §1, §2

Row | IC90 SPN 6305 [5] [µg/mL] | IC90 STA 29213 [6] [µg/mL] | melting point [°C] | SMILES | IC90 STA RMETH [1] [µg/mL] | IC90 SPY 8668 [2] [µg/mL] | IC90 EFA 29212 [3] [µg/mL] | IC90 PAE 27853 [4] [µg/mL] | also measured
1 | 0.8 (≈ 1.46 µM) | 1.7 (≈ 3.1 µM) |  | COc1nc2ccc(Br)cc2cc1C(c1ccc(C)cc1)C(O)(CCc1ccccc1)CCN(C)C (stereo not shown) [Compound 66] | 12.3 (≈ 22.5 µM) | 1.7 (≈ 3.1 µM) | 9.7 (≈ 17.7 µM) | 43.5 (≈ 79.4 µM) | 
2 | 9.8 (≈ 17.8 µM) |  | 191 | CSc1nc2ccc(Br)cc2cc1C(c1ccccc1)C(O)(CCc1ccccc1)CCN(C)C (stereo not shown) [Compound 10] |  |  |  |  | IC90 [6]: 13.8 µg/mL (≈ 25.1 µM)
3 | 1.7 (≈ 3.19 µM) | 8.5 (≈ 15.9 µM) | 126 | COc1nc2cccc(Br)c2cc1C(c1ccccc1)C(O)(CCc1ccccc1)CCN(C)C (stereo not shown) [Compound 6] |  |  |  |  | 
4 | 11.6 (≈ 19.9 µM) | 1.9 (≈ 3.26 µM) | 160 | COc1nc2ccc(Br)cc2cc1C(c1ccccc1)C(O)(CCc1cccc2ccccc12)CCN(C)C (stereo not shown) [Compound 8] |  |  |  |  | IC90 [1]: 1.9 µg/mL (≈ 3.26 µM); IC90 [8]: 1.9 µg/mL (≈ 3.26 µM); IC90 [2]: 1.9 µg/mL (≈ 3.26 µM); IC90 [3]: 1.9 µg/mL (≈ 3.26 µM); IC90 ([4]; Pseudomonas aeruginosa, ATCC27853, 24 h): 2.3 µg/mL (≈ 3.94 µM)
5 |  | 3.9 (≈ 7.12 µM) |  | COc1nc2ccc(Br)cc2cc1C(c1ccc(C)cc1)C(O)(CCc1ccccc1)CCN(C)C (stereo not shown) [Compound 65] |  |  | 1.7 (≈ 3.1 µM) | 1.7 (≈ 3.1 µM) | IC90 [1]: 10.9 µg/mL (≈ 19.9 µM); IC90 [2]: 1.7 µg/mL (≈ 3.1 µM); IC90 [5]: 0.8 µg/mL (≈ 1.46 µM)

Continued, molecule first:

Row | SMILES | IC90 SPN 6305 [5] [µg/mL] | IC90 STA 29213 [6] [µg/mL] | melting point [°C] | IC90 STA RMETH [1] [µg/mL] | IC90 SPY 8668 [2] [µg/mL] | IC90 EFA 29212 [3] [µg/mL] | IC90 PAE 27853 [4] [µg/mL] | also measured
6 | CNCCC(O)(CCc1ccc(F)cc1)C(c1ccccc1)c1cc2cc(Br)ccc2nc1OC (stereo not shown) [Compound 39] |  |  | 140 |  |  |  |  | IC90 [5]: 0.3 µg/mL (≈ 0.558 µM); IC90 [6]: 1.7 µg/mL (≈ 3.16 µM)
7 | COc1nc2ccc(Br)cc2cc1C(c1ccccc1)C(O)(CCc1ccccc1)CCN(C)C (racemic) [Compound 15] | 7.5 (≈ 14.1 µM) | 4.8 (≈ 9 µM) |  | 10.6 (≈ 19.9 µM) | 4.2 (≈ 7.87 µM) | 4.8 (≈ 9 µM) | 4.8 (≈ 9 µM) | IC90 STA 25923 [7]: 4.8 µg/mL (≈ 9 µM); IC90 LMO 49594 [8]: 2.1 µg/mL (≈ 3.94 µM); IC90 BSU 43639 [9]: 10.6 µg/mL (≈ 19.9 µM)
8 | CCOCCOCCOc1nc2ccc(Br)cc2cc1C(c1ccccc1)C(O)(CCc1ccccc1)CCN(C)C (stereo not shown) [Compound 43] |  | 10.1 (≈ 15.9 µM) | 94 |  |  |  | 10.1 (≈ 15.9 µM) | IC90 [2]: 10.1 µg/mL (≈ 15.9 µM); IC90 [3]: 10.1 µg/mL (≈ 15.9 µM); IC90 [5]: 2.3 µg/mL (≈ 3.62 µM)
9 | COc1nc2ccc(Br)cc2cc1C(c1ccccc1)C(O)(CCc1ccc(F)cc1)CCN1CCCCC1 (stereo not shown) [Compound 34] | 9.4 (≈ 15.9 µM) | 59.2 (≈ 100 µM) | 194 |  |  |  |  | 
10 | COc1nc2ccc(Br)cc2cc1C(c1ccccc1)C(O)(CCc1ccc(C)cc1)CCN(C)C (racemic) [Compound 53] | 1.7 (≈ 3.1 µM) | 1.7 (≈ 3.1 µM) |  | 13.8 (≈ 25.2 µM) | 1.7 (≈ 3.1 µM) | 6.9 (≈ 12.6 µM) | 3.9 (≈ 7.12 µM) | 
11 | COc1nc2ccc(Br)cc2cc1C(c1ccccc1)C(O)(CCc1ccc(F)cc1)CCN(C)C (racemic) [Compound 50] | 0.4 (≈ 0.725 µM) | 1.7 (≈ 3.08 µM) |  | 8.7 (≈ 15.8 µM) | 1.7 (≈ 3.08 µM) | 1.7 (≈ 3.08 µM) | 1.7 (≈ 3.08 µM) | IC90 LMO 49594 [8]: 8.7 µg/mL (≈ 15.8 µM); IC90 BSU 43639 [9]: 9.8 µg/mL (≈ 17.8 µM)

Reference: patent US20130030017A1, “QUINOLINE DERIVATIVES AS ANTIBACTERIAL AGENTS” (priority 2005, published 2013)
